Source: patent US20100137449A1, “SUBSTITUTED 1,3-CYCLOPENTADIONE MULTI-TARGET PROTEIN KINASE MODULATORS OF CANCER, ANGIOGENESIS AND THE INFLAMMATORY PATHWAYS ASSOCIATED THEREWITH” (METAPROTEOMICS, LLC, priority 2007, published 2010)

Tests used:
Assay in all cases: KinaseProfiler Assay
Tie2(R849W)(h) = Tie2(R849W)(h) (Homo sapiens, UniProt Q02763, R849W)
CaMKIIγ(h) = CaMKIIγ(h) (Homo sapiens, UniProt Q13555)
MST3(h) = MST3(h) (Homo sapiens, UniProt Q9Y6E0)
Rsk4(h) = Rsk4(h) (Homo sapiens, UniProt Q9UK32)
Chain of Rsk4(h) (Q9UK32 whole entry): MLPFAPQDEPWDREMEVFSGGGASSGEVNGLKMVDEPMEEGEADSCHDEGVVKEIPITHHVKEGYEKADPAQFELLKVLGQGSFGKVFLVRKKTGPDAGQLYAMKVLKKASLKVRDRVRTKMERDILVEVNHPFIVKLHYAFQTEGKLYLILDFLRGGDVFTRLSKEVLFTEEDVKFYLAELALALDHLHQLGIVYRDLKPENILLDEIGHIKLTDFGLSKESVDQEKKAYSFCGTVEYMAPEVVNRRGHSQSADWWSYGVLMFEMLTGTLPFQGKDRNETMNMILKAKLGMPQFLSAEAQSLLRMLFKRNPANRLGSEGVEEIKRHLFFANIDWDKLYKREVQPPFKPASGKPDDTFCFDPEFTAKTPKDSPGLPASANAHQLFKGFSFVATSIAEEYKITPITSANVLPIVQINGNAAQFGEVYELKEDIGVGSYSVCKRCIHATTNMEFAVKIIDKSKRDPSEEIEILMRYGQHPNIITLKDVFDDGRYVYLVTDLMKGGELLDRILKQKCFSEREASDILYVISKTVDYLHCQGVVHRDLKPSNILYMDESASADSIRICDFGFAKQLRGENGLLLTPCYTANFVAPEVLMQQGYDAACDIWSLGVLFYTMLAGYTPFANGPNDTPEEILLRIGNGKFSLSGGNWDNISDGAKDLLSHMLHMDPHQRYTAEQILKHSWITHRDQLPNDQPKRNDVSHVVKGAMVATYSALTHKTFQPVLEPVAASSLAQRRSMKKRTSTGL

TrkB(h) = TrkB(h) (Homo sapiens, UniProt Q16620)
Chain of TrkB(h) (Q16620 32-822): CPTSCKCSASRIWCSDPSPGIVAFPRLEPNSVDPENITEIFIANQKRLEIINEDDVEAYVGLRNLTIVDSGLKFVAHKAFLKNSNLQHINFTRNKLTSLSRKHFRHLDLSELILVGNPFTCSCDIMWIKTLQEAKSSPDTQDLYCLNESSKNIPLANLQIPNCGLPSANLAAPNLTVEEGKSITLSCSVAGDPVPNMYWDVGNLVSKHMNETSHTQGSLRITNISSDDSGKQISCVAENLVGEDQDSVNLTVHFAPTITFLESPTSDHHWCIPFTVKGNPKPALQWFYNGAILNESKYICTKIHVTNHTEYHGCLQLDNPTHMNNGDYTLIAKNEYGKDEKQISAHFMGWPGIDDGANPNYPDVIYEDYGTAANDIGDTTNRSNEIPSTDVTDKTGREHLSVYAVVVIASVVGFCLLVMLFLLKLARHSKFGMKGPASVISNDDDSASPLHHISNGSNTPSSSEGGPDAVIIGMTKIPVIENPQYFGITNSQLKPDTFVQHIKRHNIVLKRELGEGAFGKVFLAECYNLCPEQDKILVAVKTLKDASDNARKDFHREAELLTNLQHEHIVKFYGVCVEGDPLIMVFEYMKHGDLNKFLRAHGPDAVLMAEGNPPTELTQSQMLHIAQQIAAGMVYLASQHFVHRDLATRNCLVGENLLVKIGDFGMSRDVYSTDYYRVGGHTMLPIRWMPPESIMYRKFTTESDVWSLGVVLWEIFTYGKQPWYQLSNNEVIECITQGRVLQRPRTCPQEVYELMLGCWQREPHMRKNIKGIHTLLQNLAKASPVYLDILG

PKCβI(h) = PKCβI(h) (Homo sapiens, UniProt P05771)
Chain of PKCβI(h) (P05771 whole entry): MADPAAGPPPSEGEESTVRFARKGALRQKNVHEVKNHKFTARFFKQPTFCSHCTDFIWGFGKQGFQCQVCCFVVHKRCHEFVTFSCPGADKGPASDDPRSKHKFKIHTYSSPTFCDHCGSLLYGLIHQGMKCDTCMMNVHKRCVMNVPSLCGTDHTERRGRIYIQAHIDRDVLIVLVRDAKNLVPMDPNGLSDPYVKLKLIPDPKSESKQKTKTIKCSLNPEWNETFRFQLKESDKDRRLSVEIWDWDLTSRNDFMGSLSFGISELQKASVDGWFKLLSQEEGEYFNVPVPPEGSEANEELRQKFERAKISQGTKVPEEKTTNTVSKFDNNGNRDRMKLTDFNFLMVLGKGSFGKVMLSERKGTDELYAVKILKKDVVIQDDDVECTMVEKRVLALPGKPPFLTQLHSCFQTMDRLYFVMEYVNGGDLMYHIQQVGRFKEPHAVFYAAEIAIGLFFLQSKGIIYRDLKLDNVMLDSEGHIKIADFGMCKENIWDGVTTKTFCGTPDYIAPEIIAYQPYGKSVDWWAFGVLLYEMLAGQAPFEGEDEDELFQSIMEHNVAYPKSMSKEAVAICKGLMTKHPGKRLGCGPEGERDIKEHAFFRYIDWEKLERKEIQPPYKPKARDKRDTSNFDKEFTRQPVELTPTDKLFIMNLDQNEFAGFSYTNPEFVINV

GRK7(h) = molecular target: T1, GRK7(h) (Homo sapiens, UniProt Q8WTQ7)
T1 sequence (Q8WTQ7 1-553): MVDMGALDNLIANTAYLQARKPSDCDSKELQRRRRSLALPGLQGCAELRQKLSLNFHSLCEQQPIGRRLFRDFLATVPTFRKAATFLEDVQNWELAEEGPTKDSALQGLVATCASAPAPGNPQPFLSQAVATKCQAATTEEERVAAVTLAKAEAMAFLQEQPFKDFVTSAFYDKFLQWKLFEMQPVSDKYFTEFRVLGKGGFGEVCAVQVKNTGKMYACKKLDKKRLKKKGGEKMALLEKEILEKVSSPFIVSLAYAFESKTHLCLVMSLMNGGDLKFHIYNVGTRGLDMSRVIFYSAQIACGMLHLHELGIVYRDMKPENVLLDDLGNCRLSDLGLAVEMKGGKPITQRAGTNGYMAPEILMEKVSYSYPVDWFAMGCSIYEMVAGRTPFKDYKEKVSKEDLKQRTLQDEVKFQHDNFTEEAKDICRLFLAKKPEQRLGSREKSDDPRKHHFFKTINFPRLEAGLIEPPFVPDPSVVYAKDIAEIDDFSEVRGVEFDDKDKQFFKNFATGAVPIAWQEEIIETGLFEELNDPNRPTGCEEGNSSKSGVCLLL

CK1(y) = molecular target: CK1(y)
FGFR3(h) = FGFR3(h) (Homo sapiens, UniProt P22607)
MARK1(h) = MARK1(h) (Homo sapiens, UniProt Q9P0L2)
CK1γ3(h) = CK1γ3(h) (Homo sapiens, UniProt Q9Y6M4)
Chain of CK1γ3(h) (Q9Y6M4 whole entry): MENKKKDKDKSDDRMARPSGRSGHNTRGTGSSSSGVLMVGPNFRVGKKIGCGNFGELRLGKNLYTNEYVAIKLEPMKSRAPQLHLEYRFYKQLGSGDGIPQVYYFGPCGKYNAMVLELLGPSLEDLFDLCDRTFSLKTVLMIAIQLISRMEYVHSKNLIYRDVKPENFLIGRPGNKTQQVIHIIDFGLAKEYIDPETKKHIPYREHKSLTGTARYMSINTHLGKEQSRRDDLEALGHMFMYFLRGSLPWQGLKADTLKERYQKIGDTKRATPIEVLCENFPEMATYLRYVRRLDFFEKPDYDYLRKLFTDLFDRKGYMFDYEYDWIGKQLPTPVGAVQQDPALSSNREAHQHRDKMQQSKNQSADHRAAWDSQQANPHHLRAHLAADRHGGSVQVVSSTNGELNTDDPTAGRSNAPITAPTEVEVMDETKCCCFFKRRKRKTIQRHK

TSSK1(h) = molecular target: T2, TSSK1(h) (Homo sapiens, UniProt Q9BXA7)
T2 sequence (Q9BXA7 1-367): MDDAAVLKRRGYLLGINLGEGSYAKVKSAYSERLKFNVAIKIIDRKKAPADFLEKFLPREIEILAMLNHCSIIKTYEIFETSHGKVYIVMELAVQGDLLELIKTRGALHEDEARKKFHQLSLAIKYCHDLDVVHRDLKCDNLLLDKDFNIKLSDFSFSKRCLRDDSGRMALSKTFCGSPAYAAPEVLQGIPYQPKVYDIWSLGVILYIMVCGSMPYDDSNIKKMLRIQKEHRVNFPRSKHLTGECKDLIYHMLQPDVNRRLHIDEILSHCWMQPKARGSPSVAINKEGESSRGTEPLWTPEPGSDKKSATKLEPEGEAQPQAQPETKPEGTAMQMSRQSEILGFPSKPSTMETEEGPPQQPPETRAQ

PI 3-Kinaseδ(h) = molecular target: PI 3-Kinaseδ(h)

Chain of Tie2(R849W)(h) (Q02763 23-1124 R849W): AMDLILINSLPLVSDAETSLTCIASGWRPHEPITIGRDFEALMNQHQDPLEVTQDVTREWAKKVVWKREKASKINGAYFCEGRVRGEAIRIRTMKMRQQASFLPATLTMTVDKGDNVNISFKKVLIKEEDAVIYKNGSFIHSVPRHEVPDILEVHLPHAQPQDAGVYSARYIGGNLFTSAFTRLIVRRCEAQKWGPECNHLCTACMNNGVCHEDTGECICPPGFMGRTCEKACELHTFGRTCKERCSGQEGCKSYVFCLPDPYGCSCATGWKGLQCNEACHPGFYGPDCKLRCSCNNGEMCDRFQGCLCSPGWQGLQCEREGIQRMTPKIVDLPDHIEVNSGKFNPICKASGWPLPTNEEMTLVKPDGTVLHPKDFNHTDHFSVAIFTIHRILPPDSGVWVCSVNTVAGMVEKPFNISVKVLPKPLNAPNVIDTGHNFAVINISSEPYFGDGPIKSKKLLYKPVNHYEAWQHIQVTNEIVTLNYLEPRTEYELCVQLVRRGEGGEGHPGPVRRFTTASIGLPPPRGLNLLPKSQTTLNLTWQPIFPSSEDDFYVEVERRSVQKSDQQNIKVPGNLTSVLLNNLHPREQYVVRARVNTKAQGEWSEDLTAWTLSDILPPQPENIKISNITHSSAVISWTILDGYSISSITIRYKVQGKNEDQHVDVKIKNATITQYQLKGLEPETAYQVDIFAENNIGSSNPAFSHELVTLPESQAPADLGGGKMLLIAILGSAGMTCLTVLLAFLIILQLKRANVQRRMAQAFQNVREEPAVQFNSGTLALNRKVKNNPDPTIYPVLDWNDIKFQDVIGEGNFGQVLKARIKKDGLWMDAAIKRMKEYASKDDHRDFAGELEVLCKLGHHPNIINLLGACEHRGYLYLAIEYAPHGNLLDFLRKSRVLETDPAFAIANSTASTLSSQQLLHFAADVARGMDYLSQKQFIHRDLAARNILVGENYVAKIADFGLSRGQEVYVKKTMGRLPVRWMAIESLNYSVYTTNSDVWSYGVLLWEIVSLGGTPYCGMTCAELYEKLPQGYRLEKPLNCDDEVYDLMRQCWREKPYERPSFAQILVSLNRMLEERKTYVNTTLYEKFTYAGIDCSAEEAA
Chain of MST3(h) (Q9Y6E0 whole entry): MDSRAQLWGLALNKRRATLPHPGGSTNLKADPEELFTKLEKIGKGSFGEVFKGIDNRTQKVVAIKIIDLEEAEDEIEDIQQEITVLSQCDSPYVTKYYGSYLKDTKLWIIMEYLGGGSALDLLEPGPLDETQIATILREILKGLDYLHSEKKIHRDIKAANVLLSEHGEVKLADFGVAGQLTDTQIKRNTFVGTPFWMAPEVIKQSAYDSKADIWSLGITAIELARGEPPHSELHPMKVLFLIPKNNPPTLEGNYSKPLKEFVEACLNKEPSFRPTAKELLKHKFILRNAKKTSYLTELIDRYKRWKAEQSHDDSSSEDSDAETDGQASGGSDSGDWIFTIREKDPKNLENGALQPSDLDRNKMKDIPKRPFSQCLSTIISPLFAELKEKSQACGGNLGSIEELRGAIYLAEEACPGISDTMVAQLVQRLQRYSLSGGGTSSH
Chain of CaMKIIγ(h) (Q13555 whole entry): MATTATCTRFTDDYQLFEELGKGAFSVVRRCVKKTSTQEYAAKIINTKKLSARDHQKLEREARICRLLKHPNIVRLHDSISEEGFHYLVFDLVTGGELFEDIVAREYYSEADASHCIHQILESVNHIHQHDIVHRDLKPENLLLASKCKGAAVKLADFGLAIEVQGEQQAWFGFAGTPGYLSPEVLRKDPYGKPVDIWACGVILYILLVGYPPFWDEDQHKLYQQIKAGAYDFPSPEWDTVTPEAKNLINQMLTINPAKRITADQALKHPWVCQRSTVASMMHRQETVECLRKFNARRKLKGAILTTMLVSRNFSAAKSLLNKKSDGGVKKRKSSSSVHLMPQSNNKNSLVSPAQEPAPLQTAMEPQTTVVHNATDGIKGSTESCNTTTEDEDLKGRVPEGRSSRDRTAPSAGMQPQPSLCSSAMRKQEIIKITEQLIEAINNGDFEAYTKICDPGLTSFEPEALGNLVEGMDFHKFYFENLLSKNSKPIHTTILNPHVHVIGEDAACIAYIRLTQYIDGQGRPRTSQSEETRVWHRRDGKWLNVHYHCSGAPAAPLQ

CC(C)CCC(=O)[C@]1(O)C(O)=C(C(=O)C(C)C)C(=O)[C@H]1CCC(C)C [TH2, tetrahydroiso-cohumulone]
kinase inhibition (Tie2(R849W)(h); 1 μg/ml): 91% of control | kinase inhibition (Tie2(R849W)(h); 5 μg/ml): 53% of control | kinase inhibition (Tie2(R849W)(h); 25 μg/ml): 48% of control | kinase inhibition (Tie2(R849W)(h); 50 μg/ml): 43% of control | kinase inhibition (Tie2(R849W)(h); 100 μg/ml): 46% of control | kinase inhibition (CaMKIIγ(h); 1 μg/ml): 109% of control | kinase inhibition (CaMKIIγ(h); 5 μg/ml): 109% of control | kinase inhibition (CaMKIIγ(h); 25 μg/ml): 131% of control | kinase inhibition (CaMKIIγ(h); 50 μg/ml): 108% of control | kinase inhibition (CaMKIIγ(h); 100 μg/ml): 101% of control | kinase inhibition (MST3(h); 1 μg/ml): 107% of control | kinase inhibition (MST3(h); 5 μg/ml): 89% of control | kinase inhibition (MST3(h); 25 μg/ml): 87% of control | kinase inhibition (MST3(h); 50 μg/ml): 46% of control | kinase inhibition (MST3(h); 100 μg/ml): 45% of control | kinase inhibition (Rsk4(h); 1 μg/ml): 79% of control | kinase inhibition (Rsk4(h); 5 μg/ml): 71% of control | kinase inhibition (Rsk4(h); 25 μg/ml): 47% of control | kinase inhibition (Rsk4(h); 50 μg/ml): 31% of control | kinase inhibition (Rsk4(h); 100 μg/ml): 17% of control | kinase inhibition (TrkB(h); 1 μg/ml): 136% of control | kinase inhibition (TrkB(h); 5 μg/ml): 132% of control | kinase inhibition (TrkB(h); 25 μg/ml): 144% of control | kinase inhibition (TrkB(h); 50 μg/ml): 118% of control | kinase inhibition (TrkB(h); 100 μg/ml): 78% of control | kinase inhibition (PKCβI(h); 1 μg/ml): 105% of control | kinase inhibition (PKCβI(h); 5 μg/ml): 110% of control | kinase inhibition (PKCβI(h); 25 μg/ml): 93% of control | kinase inhibition (PKCβI(h); 50 μg/ml): 95% of control | kinase inhibition (PKCβI(h); 100 μg/ml): 92% of control | kinase inhibition (GRK7(h); 1 μg/ml): 110% of control | kinase inhibition (GRK7(h); 5 μg/ml): 95% of control | kinase inhibition (GRK7(h); 25 μg/ml): 102% of control | kinase inhibition (GRK7(h); 50 μg/ml): 91% of control | kinase inhibition (GRK7(h); 100 μg/ml): 99% of control | kinase inhibition (CK1(y); 25 μg/ml): 110% of control | kinase inhibition (CK1(y); 50 μg/ml): 110% of control | kinase inhibition (CK1(y); 100 μg/ml): 100% of control | kinase inhibition (FGFR3(h); 1 μg/ml): 94% of control | kinase inhibition (FGFR3(h); 5 μg/ml): 92% of control | kinase inhibition (FGFR3(h); 25 μg/ml): 67% of control | kinase inhibition (FGFR3(h); 50 μg/ml): 64% of control | kinase inhibition (FGFR3(h); 100 μg/ml): 51% of control | kinase inhibition (MARK1(h); 1 μg/ml): 109% of control | kinase inhibition (MARK1(h); 5 μg/ml): 110% of control | kinase inhibition (MARK1(h); 25 μg/ml): 97% of control | kinase inhibition (MARK1(h); 50 μg/ml): 90% of control | kinase inhibition (MARK1(h); 100 μg/ml): 63% of control | kinase inhibition (CK1γ3(h); 1 μg/ml): 96% of control | kinase inhibition (CK1γ3(h); 5 μg/ml): 91% of control | kinase inhibition (CK1γ3(h); 25 μg/ml): 83% of control | kinase inhibition (CK1γ3(h); 50 μg/ml): 43% of control | kinase inhibition (CK1γ3(h); 100 μg/ml): 34% of control | kinase inhibition (TSSK1(h); 1 μg/ml): 105% of control | kinase inhibition (TSSK1(h); 5 μg/ml): 97% of control | kinase inhibition (TSSK1(h); 25 μg/ml): 96% of control | kinase inhibition (TSSK1(h); 50 μg/ml): 91% of control | kinase inhibition (TSSK1(h); 100 μg/ml): 86% of control | kinase inhibition (PI 3-Kinaseδ(h); 1 μg/ml): 95% of control | kinase inhibition (PI 3-Kinaseδ(h); 5 μg/ml): 100% of control | kinase inhibition (PI 3-Kinaseδ(h); 25 μg/ml): 72% of control | kinase inhibition (PI 3-Kinaseδ(h); 50 μg/ml): 42% of control | kinase inhibition (PI 3-Kinaseδ(h); 100 μg/ml): 19% of control
